Experiment in all cases: growth of human tumour cells (NCI), 48 h
Assay [1] concerns SK-MEL-28 melanoma.
For assay [2], the system named is HCT-15 colon.
For assay [3], the system named is RXF 393 renal.
In assay [4] the test system is U251 CNS.
Assay [5] relates to HCC-2998 colon.
The subject of assay [6] is CCRF-CEM leukemia.
Assay [7] relates to K-562 leukemia.
Assay [8] deals with OVCAR-4 ovarian.
Assay [9] deals with NCI-H460 lung.
Assay [10] deals with OVCAR-8 ovarian.
The subject of assay [11] is MOLT-4 leukemia.
For assay [12], the system named is SK-MEL-2 melanoma.

Several values for one entry are separate records, joined by “and”; a condition that tells them apart may be missing. Equal values may be shown once.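 Protocol summary: plate cells (96-well), add compound at 5 concentrations, incubate 48 h, interpolate endpoints linearly. GI50 is the concentration that inhibits growth by half. Definition used: TGI = concentration required for complete inhibition of growth.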 Where a SMILES comes first, the peptide text is derived from it.

`CC1=CC(C2/C(=N/O)C=C(C)CC2(C)C)C(O)C(C)(C)C1` (configuration not stated): the TGI in assay [1] worked out at 30.9 µM; in assay [2] it was 33.6 µM; in assay [3], 30 µM; in assay [4], 29.6 µM; in assay [5], 30 µM; in [6] it was 60.4 µM. The TGI in [7] was 32.1 µM; in assay [8], 29.8 µM; in [9], 43.1 µM; in assay [10], 33.8 µM; in [11] it was 31.3 µM; in [12] it was 30.6 µM.

With `CCOC(=O)c1csc(NC(=O)C(C)N2CCCCC2)n1` (configuration not stated), the TGI in assay [1], in [2], in [3], in [4], in [5] and in [6] was more than 100 µM each time. Moreover, the TGI in [7], in assay [8], in assay [9], in assay [10], in assay [11] and in assay [12] was more than 100 µM in each case.

`OCC1OC(n2cnc3c2NC=NC[C@H]3O)C(O)C1O` (some centres not stated): the TGI was more than 450 µM in assay [1]; more than 450 µM in assay [2]; more than 450 µM in assay [3]; more than 450 µM in assay [4]; more than 450 µM in assay [5]; more than 284 µM in assay [6]. For the same molecule, the TGI in assay [7] is more than 284 µM; in assay [8], more than 450 µM; in assay [9] it was more than 450 µM; in [10] it was more than 450 µM; in assay [11] it was more than 450 µM; in assay [12] it was more than 450 µM.

Consider `COC(=O)C1OC(Oc2cc(O)c3c(=O)cc(-c4ccc(O)cc4)oc3c2)C(O)C(O)C1O` (configuration not stated), for which the TGI in assay [1], in [2], in assay [3], in assay [4], in assay [5] and in [6] was more than 100 µM throughout. The TGI in assay [7], in assay [8], in assay [9], in assay [10], in [11] and in [12] was more than 100 µM in each case.

For `CN(C)C(=O)NCCN1CCCCCc2ccccc21`, the TGI in assay [1], in [2], in assay [3], in [4], in assay [5] and in assay [6] was more than 100 µM throughout. The TGI in assay [7], in assay [8], in assay [9], in assay [10], in assay [11] and in assay [12] was more than 100 µM each time.

Take `COc1ccnc2c1C(=O)c1nc3ccccc3c3ccnc-2c13`: the TGI was determined as 7.37 µM in assay [1]; 0.145 µM in assay [2]; 0.86 µM in [3]; 0.61 µM in assay [4]; 1.52 µM in assay [5]; 1.35 µM in [6]. Besides, the TGI stood at 0.653 µM in assay [7]; 2.65 µM in assay [8]; 0.139 µM in [9]; 0.224 µM in assay [10]; 7.32 µM in [11]; 4.11 µM in assay [12].

Take `O=C1NC(=O)C(CCO)(c2ccccc2)C(=O)N1`: the TGI in assay [1], in assay [2], in assay [3], in [4], in [5] and in assay [6] was more than 100 µM in each case. The TGI in [7], in [8], in [9], in [10], in [11] and in assay [12] was more than 100 µM in each case.

Turning to `O=C(CC(c1ccccc1)N1CCCCC1)c1ccccc1` (configuration not stated), the TGI in [1] was determined as 32.4 µM; in assay [2], 36.6 µM; in assay [3] it was 33.6 µM; in [4], 21.9 µM; in assay [5], 15.6 µM; in assay [6], 4.69 µM. In addition, the TGI stood at 8.6 µM in assay [7]; 40.2 µM in [8]; 26.6 µM in assay [9]; 33.4 µM in [10]; 3.92 µM in assay [11]; 35.4 µM in assay [12].

For the molecule `C=CCn1c(=O)n(CC=C)c(=O)n(CC=C)c1=O`, the TGI in assay [1], in assay [2], in assay [3], in assay [4], in [5] and in [6] was more than 100 µM each time. The TGI in assay [7], in assay [9], in assay [10], in assay [11] and in assay [12] was more than 100 µM throughout.

For the molecule `O=c1c(-c2ccccc2)c(SCCCN2CCN(c3cccc(Cl)c3)CC2)n(-c2ccccc2)c(=S)n1-c1ccccc1`, the TGI in [1], in [2], in assay [3], in [4], in [5] and in [6] was more than 100 µM in each case. Besides, the TGI in assay [7], in assay [8], in [9], in assay [10], in assay [11] and in assay [12] was more than 100 µM throughout.

On to `C=C1C(=O)O[C@H]2[C@H]1[C@@H](OC(=O)C=C(C)C)CC1=C[C@@H](C[C@@]3(C)O[C@@H]23)OC1=O`, for which the GI50 was 8.31 µM and 3.23 µM in assay [1]; 3.46 µM in assay [2]; 24 µM in [4]; 1.02 µM and 3.16 µM in assay [7]; 4.55 µM in assay [8]; 2.27 µM and 14.9 µM in assay [9]. The GI50 is 1.99 µM in assay [10] and 13 µM in [12]. Besides, the TGI in assay [1] is 46 µM and 8.18 µM; in assay [2], 3.97 µM and 11.7 µM; in assay [3] it was 3.82 µM; in assay [4], 32.2 µM and 42.5 µM; in assay [5], 34.9 µM; in assay [6], 1120 µM. Besides, the TGI was 50.2 µM and 9.4 µM in assay [7]; 20.6 µM and 13.7 µM in [8]; 5.83 µM and 31.8 µM in [9]; 7.5 µM in [10]; 77.4 µM in [11]; 17.6 µM and 30 µM in assay [12].

As for `CCC(C)C(NC(=O)C(CCCCN)NC(=O)C(NC(=O)C(CCC(N)=O)NC(=O)C(N)CCCNC(=N)N)C(C)CC)C(=O)NC(Cc1c[nH]c2ccccc12)C(=O)NC(Cc1ccccc1)C(=O)NC(CCC(N)=O)C(=O)NC(CC(N)=O)C(=O)NC(CCCNC(=N)N)C(=O)NC(CCCNC(=N)N)C(=O)NC(CCSC)C(=O)NC(CCCCN)C(=O)NC(Cc1c[nH]c2ccccc12)C(=O)NC(CCCCN)C(=O)NC(CCCCN)C(=O)N1CCCC1C(=O)NC(C)C(=O)NC(CCCCN)C(=O)NC(CCCNC(=N)N)C(=O)NC(CCCCN)C(=O)NC(CC(C)C)C(=O)NC(Cc1ccccc1)C(=O)NCC(=O)O` (configuration not stated) (H-RQIKIWFQNRRMKWKKPAKRKLFG-OH; configuration not given here), the TGI in assay [1], in assay [2], in [3], in assay [4], in [5] and in [6] was more than 25 µM each time. Further, the TGI in assay [7], in assay [8], in [9], in assay [10], in assay [11] and in assay [12] was more than 25 µM each time.

On to `CCCCN1C=CN2c3nc4cc(C)c(C)cc4n3C(C(=O)OC)=C(C(=O)OC)C12` (configuration not stated), for which the TGI in [2], in assay [3], in [4], in assay [5], in assay [6] and in assay [7] was more than 100 µM throughout. The TGI in [8], in assay [9], in assay [10], in [11] and in assay [12] was more than 100 µM throughout.
